From patent US7741360B2, “Bi-aryl or aryl-heteroaryl substituted indoles” (AstraZeneca AB, priority 2006, dated 2010)

Biological target: T1, rhCRTh2 (Homo sapiens, UniProt Q9Y5Y4)
T1 construct: expressed in transfected cells; host or cells: HEK cells (membrane preparation)
T1 sequence (Q9Y5Y4 1-395): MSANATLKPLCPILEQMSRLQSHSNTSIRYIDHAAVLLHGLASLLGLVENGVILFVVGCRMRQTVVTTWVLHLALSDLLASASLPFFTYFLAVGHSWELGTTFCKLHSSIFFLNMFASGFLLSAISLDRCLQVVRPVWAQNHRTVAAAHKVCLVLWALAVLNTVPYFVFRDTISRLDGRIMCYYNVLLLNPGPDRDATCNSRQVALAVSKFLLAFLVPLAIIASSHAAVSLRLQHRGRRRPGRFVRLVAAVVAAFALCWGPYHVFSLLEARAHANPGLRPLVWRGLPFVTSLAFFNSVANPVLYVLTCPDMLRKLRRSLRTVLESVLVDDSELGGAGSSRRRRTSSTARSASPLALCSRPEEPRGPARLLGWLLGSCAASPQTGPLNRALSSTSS
Test: Ligand binding assay, [3H]PGD2 SPA on HEK cell membranes
Conditions: [3H]PGD2 displacement, membranes of HEK cells expressing rhCRTh2/Gα16, SPA beads, RT 2 hours
Description: [^3H]PGD2 was purchased from Perkin Elmer Life Sciences with a specific activity of 100-210 Ci/mmol. All other chemicals were of analytical grade.
HEK cells expressing rhCRTh2/Gα16 were routinely maintained in DMEM containing 10% Foetal Bovine Serum (HyClone), 1 mg/ml geneticin, 2 mM L-glutamine and 1% non-essential amino acids. For the preparation of membranes, the adherent transfected HEKcells were grown to confluence in two layer tissue culture factories (Fisher, catalogue number TKT-170-070E). Maximal levels of receptor expression were induced by addition of […] sodium butyrate for the last 18 hours of culture. […] The final pellet was re-suspended in 4 ml of membrane homogenisation buffer per cell factory used and the protein content determined. […]
All assays were performed in Corning clear bottomed, white 96-well NBS plates (Fisher). […] (The optimum coating concentrations were determined for each batch of membranes) The beads were pelleted by centrifugation (800×g for 7 minutes at 4° C.), washed once with assay buffer (50 mM HEPES pH 7.4 containing 5 mM magnesium chloride) and finally re-suspended in assay buffer at a bead concentration of 10 mg/ml. […]

Cc1c(Sc2ccc(-c3ccccc3)cc2)c2cc(F)ccc2n1CC(=O)O [Example 1, [3-(Biphenyl-4-ylsulfanyl)-5-fluoro-2-methyl-indol-1-yl]-acetic acid]
IC50: 20 nM
